Source: article PMC11233931, “Remodeling tumor‐associated macrophage for anti‐cancer effects by rational design of irreversible inhibition of mitogen‐activated protein kinase‐activated protein kinase 2” (MedComm, 2024)

Legend:
Test in all cases: Eurofins kinase selectivity profile against 380 other human recombinant kinases (Table S2)
Type in all cases: biochemical
[1] = biological target: T1, 380 human recombinant protein kinases (Homo sapiens, UniProt Q8WU08); conditions: STK32A(h), read-out: Inhibition rate (%)
T1 construct: purchased Eurofins (Celle Lévescault)
How it was run: (§1)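 To gauge specificity for MK2, the compound is profiled externally at various concentrations on recombinant human kinases, 380 in total.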

[2] = biological target: T2, 380 human recombinant protein kinases (Homo sapiens, UniProt Q8NG66); conditions: NEK11(h), read-out: Inhibition rate
T2 construct: purchased Eurofins (Celle Lévescault)
T2 sequence (Q8NG66 1-645): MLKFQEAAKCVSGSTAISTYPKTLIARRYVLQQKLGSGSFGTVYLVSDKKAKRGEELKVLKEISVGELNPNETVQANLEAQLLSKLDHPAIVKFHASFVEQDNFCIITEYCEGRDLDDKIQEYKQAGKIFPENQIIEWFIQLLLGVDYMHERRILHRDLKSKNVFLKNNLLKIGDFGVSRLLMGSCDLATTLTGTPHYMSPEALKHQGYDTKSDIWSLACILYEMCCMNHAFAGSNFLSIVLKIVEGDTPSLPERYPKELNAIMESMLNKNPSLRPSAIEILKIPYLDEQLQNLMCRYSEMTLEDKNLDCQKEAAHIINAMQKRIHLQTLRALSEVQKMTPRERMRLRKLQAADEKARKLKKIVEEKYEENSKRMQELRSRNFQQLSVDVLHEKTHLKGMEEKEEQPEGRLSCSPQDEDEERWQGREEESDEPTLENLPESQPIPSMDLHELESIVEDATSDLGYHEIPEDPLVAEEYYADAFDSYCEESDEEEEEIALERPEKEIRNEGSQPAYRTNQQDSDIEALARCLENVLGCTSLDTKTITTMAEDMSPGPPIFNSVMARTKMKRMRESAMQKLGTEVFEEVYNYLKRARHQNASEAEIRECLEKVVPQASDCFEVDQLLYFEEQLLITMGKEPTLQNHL
How it was run: as §1

[3] = biological target: T3, 380 human recombinant protein kinases (Homo sapiens, UniProt P29320); conditions: EphA3(h), read-out: Inhibition rate
T3 construct: purchased Eurofins (Celle Lévescault)
T3 sequence (P29320 21-983): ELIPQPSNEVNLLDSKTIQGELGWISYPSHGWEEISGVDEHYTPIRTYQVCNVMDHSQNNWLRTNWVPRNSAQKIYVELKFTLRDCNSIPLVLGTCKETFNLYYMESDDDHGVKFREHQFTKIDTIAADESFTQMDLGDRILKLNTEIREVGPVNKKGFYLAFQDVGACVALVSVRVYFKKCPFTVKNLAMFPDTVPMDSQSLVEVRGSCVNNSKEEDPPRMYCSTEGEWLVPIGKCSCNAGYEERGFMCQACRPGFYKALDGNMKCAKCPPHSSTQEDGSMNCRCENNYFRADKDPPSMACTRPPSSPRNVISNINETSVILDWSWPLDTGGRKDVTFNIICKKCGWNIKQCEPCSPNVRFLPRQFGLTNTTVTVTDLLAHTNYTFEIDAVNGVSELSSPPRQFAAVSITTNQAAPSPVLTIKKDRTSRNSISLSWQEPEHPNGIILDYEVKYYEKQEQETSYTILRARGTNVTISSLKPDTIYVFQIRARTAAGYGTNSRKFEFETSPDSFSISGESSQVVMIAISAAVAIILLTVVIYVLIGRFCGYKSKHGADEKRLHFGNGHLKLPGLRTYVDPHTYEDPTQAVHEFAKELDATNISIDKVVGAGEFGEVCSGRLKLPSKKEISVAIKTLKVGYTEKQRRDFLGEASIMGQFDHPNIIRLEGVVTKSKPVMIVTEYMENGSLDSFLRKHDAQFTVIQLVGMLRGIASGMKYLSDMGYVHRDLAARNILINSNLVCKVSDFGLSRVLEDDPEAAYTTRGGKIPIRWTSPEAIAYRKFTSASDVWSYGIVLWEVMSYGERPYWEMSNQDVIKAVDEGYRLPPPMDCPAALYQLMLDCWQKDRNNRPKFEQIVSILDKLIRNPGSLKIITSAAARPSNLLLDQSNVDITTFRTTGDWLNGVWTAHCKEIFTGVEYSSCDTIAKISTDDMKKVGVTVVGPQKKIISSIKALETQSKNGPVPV
How it was run: as §1

[4] = biological target: T4, 380 human recombinant protein kinases (Homo sapiens, UniProt P53671); conditions: LIMK2(h), read-out: Inhibition rate
T4 construct: purchased Eurofins (Celle Lévescault)
How it was run: as §1

[5] = biological target: T5, 380 human recombinant protein kinases (Homo sapiens, UniProt Q14004); conditions: CDK13/cyclinK(h), read-out: Inhibition rate
T5 construct: purchased Eurofins (Celle Lévescault)
How it was run: as §1

[6] = biological target: T6, 380 human recombinant protein kinases (Homo sapiens, UniProt P41743); conditions: PKCι(h), read-out: Inhibition rate
T6 construct: purchased Eurofins (Celle Lévescault)
T6 sequence (P41743 1-596): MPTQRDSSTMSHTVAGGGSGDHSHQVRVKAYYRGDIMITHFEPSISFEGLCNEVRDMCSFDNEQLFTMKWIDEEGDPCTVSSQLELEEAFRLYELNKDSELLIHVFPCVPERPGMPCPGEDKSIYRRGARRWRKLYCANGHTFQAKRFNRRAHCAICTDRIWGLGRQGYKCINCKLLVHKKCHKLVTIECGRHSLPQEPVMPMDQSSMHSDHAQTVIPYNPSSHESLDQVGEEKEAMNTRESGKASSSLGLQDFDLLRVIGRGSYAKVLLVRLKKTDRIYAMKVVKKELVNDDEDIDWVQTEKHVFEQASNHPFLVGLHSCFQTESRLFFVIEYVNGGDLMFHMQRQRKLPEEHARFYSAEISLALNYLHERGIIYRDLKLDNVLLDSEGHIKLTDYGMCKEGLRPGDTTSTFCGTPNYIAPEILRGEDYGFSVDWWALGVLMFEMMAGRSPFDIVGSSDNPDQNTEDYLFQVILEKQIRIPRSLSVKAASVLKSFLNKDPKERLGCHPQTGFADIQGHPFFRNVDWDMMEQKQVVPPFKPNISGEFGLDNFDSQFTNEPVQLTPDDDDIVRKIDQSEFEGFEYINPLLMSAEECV
How it was run: as §1

T5 sequence (Q14004 whole entry): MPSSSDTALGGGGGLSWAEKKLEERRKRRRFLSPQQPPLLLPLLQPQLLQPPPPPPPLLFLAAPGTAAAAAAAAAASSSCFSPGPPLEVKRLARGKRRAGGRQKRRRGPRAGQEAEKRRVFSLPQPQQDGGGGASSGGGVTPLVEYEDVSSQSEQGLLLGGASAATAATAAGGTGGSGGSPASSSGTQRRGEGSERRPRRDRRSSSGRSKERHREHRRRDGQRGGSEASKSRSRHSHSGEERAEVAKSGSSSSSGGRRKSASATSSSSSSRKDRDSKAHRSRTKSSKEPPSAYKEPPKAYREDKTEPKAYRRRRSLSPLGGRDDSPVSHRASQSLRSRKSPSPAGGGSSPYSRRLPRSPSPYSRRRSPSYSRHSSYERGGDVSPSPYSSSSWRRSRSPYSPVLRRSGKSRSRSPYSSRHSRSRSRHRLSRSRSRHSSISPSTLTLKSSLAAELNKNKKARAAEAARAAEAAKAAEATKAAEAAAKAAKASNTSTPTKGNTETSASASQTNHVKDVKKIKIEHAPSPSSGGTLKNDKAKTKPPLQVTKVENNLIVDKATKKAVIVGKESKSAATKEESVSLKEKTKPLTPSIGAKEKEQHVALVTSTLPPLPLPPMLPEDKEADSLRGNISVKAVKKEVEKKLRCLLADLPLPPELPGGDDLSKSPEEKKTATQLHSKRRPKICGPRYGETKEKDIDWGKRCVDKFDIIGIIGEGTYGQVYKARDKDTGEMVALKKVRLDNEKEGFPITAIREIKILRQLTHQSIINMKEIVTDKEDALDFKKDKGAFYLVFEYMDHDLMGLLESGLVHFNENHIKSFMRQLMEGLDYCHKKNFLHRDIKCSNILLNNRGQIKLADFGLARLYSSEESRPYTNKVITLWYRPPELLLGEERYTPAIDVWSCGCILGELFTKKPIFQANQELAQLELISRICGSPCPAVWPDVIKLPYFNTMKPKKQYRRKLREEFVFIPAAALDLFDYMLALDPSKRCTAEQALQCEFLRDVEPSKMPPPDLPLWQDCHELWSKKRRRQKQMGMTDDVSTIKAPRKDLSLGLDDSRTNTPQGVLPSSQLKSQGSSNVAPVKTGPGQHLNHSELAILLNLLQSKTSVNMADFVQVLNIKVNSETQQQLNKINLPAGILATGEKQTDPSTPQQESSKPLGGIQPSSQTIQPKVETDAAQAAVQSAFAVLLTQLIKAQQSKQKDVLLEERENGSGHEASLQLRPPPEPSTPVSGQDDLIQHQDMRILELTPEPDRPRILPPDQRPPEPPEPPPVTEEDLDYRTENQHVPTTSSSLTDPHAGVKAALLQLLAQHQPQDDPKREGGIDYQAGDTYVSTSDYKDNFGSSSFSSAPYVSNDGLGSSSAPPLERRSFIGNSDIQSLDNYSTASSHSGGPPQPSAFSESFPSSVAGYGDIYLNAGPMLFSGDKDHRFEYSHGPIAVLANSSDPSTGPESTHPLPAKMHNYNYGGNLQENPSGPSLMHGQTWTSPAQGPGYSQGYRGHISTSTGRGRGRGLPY
T1 sequence (Q8WU08 whole entry): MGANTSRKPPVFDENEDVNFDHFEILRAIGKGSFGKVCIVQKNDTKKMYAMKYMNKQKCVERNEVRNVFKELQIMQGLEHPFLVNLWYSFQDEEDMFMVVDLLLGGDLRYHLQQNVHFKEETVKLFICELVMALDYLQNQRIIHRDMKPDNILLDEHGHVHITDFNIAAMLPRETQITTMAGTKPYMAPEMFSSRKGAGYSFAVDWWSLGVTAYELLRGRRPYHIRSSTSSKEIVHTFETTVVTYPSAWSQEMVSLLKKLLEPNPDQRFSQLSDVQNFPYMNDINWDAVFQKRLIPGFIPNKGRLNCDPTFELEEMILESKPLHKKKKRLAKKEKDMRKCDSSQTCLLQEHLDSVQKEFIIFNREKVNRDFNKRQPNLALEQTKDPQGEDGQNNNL
T4 sequence (P53671 whole entry): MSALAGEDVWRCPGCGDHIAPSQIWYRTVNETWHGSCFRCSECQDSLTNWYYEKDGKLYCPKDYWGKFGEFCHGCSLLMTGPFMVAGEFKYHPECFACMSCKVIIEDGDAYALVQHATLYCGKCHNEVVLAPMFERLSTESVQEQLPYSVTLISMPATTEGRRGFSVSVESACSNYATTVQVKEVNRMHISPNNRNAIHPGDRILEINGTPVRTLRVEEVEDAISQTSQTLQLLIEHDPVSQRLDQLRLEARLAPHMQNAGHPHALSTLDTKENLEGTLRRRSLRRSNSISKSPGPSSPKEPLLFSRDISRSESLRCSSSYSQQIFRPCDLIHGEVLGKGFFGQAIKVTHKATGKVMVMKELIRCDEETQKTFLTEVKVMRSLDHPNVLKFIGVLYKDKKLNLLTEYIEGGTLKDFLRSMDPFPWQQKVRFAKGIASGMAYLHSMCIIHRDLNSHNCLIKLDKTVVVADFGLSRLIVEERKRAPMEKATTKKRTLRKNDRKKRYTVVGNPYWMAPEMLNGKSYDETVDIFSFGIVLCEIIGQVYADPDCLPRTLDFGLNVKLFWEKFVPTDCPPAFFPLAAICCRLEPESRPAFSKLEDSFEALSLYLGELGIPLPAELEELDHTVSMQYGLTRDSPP

## C=CC(=O)Nc1cc(-c2cc(-c3cc4c([nH]3)CCNC4=O)ccn2)ccc1OC(F)(F)F [compound 11]
[1]; 10 nM
  inhibition at 0.01 µM: 3%
[1]; 100 nM
  inhibition at 0.1 µM: 10%
[1]; 1000 nM
  inhibition at 1 µM: 7%
[2]; 10 nM
  inhibition at 0.01 µM: -1%
[2]; 100 nM
  inhibition at 0.1 µM: 0%
[2]; 1000 nM
  inhibition at 1 µM: -4%
[3]; 10 nM
  inhibition at 0.01 µM: 15%
[3]; 100 nM
  inhibition at 0.1 µM: -1%
[3]; 1000 nM
  inhibition at 1 µM: -10%
[4]; 10 nM
  inhibition at 0.01 µM: -9%
[4]; 100 nM
  inhibition at 0.1 µM: -8%
[4]; 1000 nM
  inhibition at 1 µM: -1%
[5]; 10 nM
  inhibition at 0.01 µM: 1%
[5]; 100 nM
  inhibition at 0.1 µM: 7%
[5]; 1000 nM
  inhibition at 1 µM: 9%
[6]; 10 nM
  inhibition at 0.01 µM: 0%
[6]; 100 nM
  inhibition at 0.1 µM: 5%
[6]; 1000 nM
  inhibition at 1 µM: 8%
